Results from patent publication US6444612B1, “Use of 5-amino-pyrazol-derivatives for combating micro-organisms” (Bayer Aktiengesellschaft, priority 1998, dated 2002).

Test: log P value (physical constant)
Format: physicochemical
Conditions: acidic

Row | Compound | logP
1 | CCOC(=O)c1c(CC)nn(C)c1NC(=O)Cc1cccc(Cl)c1 [Example 89, 5-(3-chloro-phenyl-acetyl)-amino-3-ethyl4-ethoxycarbonyl-l-methyl-pyrazole] | 2.65

Same assay, conditions: logP, Table 4

Row | Compound | Physical constant (logP)
2 | CC(=NOC(C)(C)C)c1cccc(CC(=O)Nc2c(Cl)c(C)nn2C)c1 [Example 130] | logP = 3.53
3 | CON=C(C)c1cccc(CC(=O)Nc2c(Cl)c(C)nn2C)c1 [Example 124] | logP = 2.32
4 | Cc1cc(NC(=O)Cc2ccccc2Cl)n(CCC#N)n1 [Example 113] | logP = 1.77
5 | COC(=O)c1c(C)nn(C)c1NC(=O)Cc1cccc(Br)c1 [Example 135] | logP = 2.11
6 | CCOC(=O)c1c(CC)nn(C)c1NC(=O)C=Cc1ccc(Oc2ccc(C#N)cc2)cc1 [Example 106] | logP = 3.16
7 | Cc1cc(NC(=O)Cc2ccc(Cl)cc2Cl)n(C)n1 [Example 121] | logP = 2.06
8 | CCOC(=O)c1c(CC)nn(C)c1NC(=O)Cc1ccc(OCc2ccccc2)cc1 [Example 104] | logP = 3.26
9 | Cc1cc(C)c(-c2ccc(Cl)cc2)c(C)c1CC(=O)Nc1c(Cl)c(C)nn1C [Example 147] | logP = 4.08
10 | Cc1ccc(-c2cccc(Cl)c2)cc1CC(=O)Nc1c(Cl)c(C)nn1C [Example 140] | logP = 3.53
11 | CCc1cc(NC(=O)Cc2ccc(Br)cc2)n(C)n1 [Example 105] | logP = 2.13
12 | CCOC(=O)c1c(CC)nn(C)c1NC(=O)C=Cc1ccc(Oc2ccc([N+](=O)[O-])cc2)cc1 [Example 107] | logP = 3.41
13 | COC(=O)c1c(C)nn(C)c1NC(=O)Cc1cccc(C(C)=O)c1 [Example 116] | logP = 1.50
14 | Cc1ccc(-c2ccc(Cl)cc2)c(C)c1CC(=O)Nc1c(Cl)c(C)nn1C [Example 144] | logP = 3.84
15 | Cc1nn(C)c(NC(=O)Cc2c(F)cc(F)c(F)c2C(F)(F)F)c1C#N [Example 160] | logP = 2.32
16 | CC(=NOCc1ccc(Cl)cc1Cl)c1cccc(CC(=O)Nc2c(Cl)c(C)nn2C)c1 [Example 129] | logP = 4.30
17 | CCc1nn(C)c(NC(=O)Cc2c(F)cc(F)c(F)c2C(F)(F)F)c1C#N [Example 172] | logP = 2.59
18 | CC(=NO)c1cccc(CC(=O)Nc2c(Cl)c(C)nn2C)c1 [Example 123] | logP = 1.85
19 | C=CCON=C(C)c1cccc(CC(=O)Nc2c(Cl)c(C)nn2C)c1 [Example 132] | logP = 2.80
20 | Cc1nn(C)c(NC(=O)Cc2ccc(-c3ccccc3)cc2)c1C#N [Example 150] | logP = 2.57

Row | Compound | Physical constant (logP)
21 | CC(=O)Oc1cccc(CC(=O)Nc2c(C#N)c(C)nn2C)c1 [Example 119] | logP = 1.88
22 | Cc1nn(C)c(NC(=O)Cc2c(F)cc(F)c(F)c2C(F)(F)F)c1Cl [Example 148] | logP = 2.60
23 | Cc1nn(C)c(NC(=O)Cc2ccccc2C(=O)NCc2ccc(Cl)nc2)c1Cl [Example 134] | logP = 1.91
24 | CC(=NOCc1ccc(Cl)nc1)c1cccc(CC(=O)Nc2c(Cl)c(C)nn2C)c1 [Example 128] | logP = 2.80
25 | CCOC(=O)c1c(CC)nn(C)c1NC(=O)Cc1cccc(Oc2ccccc2)c1 [Example 111] | logP = 3.28
26 | CCCNC(=O)c1ccccc1CC(=O)Nc1c(Cl)c(C)nn1C [Example 133] | logP = 1.92
27 | Cc1cc(C)c(-c2ccc(Cl)cc2)cc1CC(=O)Nc1c(Cl)c(C)nn1C [Example 146] | logP = 3.82
28 | Cc1nn(C)c(NC(=O)Cc2ccc(-c3ccccc3)cc2)c1Cl [Example 139] | logP = 2.81
29 | CCc1nn(C)c(NC(=O)C=Cc2ccc(Oc3ccc([N+](=O)[O-])cc3)cc2)c1C#N [Example 108] | logP = 3.05
30 | Cn1nc(C2CC2)cc1NC(=O)Cc1ccc(Oc2ccc(C#N)cc2)cc1 [Example 109] | logP = 2.45
31 | Cc1nn(C)c(NC(=O)Cc2ccccc2C(=O)O)c1Cl [Example 122] | logP = 1.50
32 | CCON=C(C)c1cccc(CC(=O)Nc2c(Cl)c(C)nn2C)c1 [Example 125] | logP = 2.88
33 | CC(=NOCc1ccc(C(F)(F)F)cc1)c1cccc(CC(=O)Nc2c(Cl)c(C)nn2C)c1 [Example 127] | logP = 3.83
34 | Cn1nc(C2CC2)c(Cl)c1NC(=O)Cc1ccc(Oc2ccc(C#N)cc2)cc1 [Example 110] | logP = 2.90
35 | CC(=NOCc1c(Cl)cccc1Cl)c1cccc(CC(=O)Nc2c(Cl)c(C)nn2C)c1 [Example 131] | logP = 3.91
36 | Cc1ccc(-c2ccc(Cl)cc2)cc1CC(=O)Nc1c(C#N)c(C)nn1C [Example 151] | logP = 3.20
37 | Cc1ccc(Oc2ccccc2CC(=O)Nc2c(Cl)c(C)nn2C)c(C)c1 [Example 138] | logP = 3.44
38 | CC(=NOCc1ccccc1)c1cccc(CC(=O)Nc2c(Cl)c(C)nn2C)c1 [Example 126] | logP = 3.31
39 | CC(=O)c1cccc(CC(=O)Nc2c(C#N)c(C)nn2C)c1 [Example 114] | logP = 1.48

Next, values leading:

Row | Physical constant (logP) | Compound
40 | logP = 3.74 | CCc1nn(C)c(NC(=O)Cc2c(C)cc(-c3ccc(Cl)cc3)cc2C)c1C#N [Example 166]
41 | logP = 3.24 | Cc1cc(C)c(-c2ccccc2Cl)cc1CC(=O)Nc1c(C#N)c(C)nn1C [Example 157]
42 | logP = 3.64 | Cc1cc(C)c(-c2ccccc2Cl)cc1CC(=O)Nc1c(Cl)c(C)nn1C [Example 145]
43 | logP = 3.49 | Cc1cc(C)c(-c2ccc(Cl)cc2)cc1CC(=O)Nc1c(C#N)c(C)nn1C [Example 158]
44 | logP = 3.44 | CCc1nn(C)c(NC(=O)Cc2ccccc2Oc2ccc(C)cc2C)c1C#N [Example 161]
45 | logP = 2.81 | CCc1nn(C)c(NC(=O)Cc2ccc(-c3ccccc3)cc2)c1C#N [Example 162]
46 | logP = 3.43 | Cc1ccc(-c2ccc(Cl)cc2)c(C)c1CC(=O)Nc1c(C#N)c(C)nn1C [Example 156]
47 | logP = 4.09 | Cc1cc(C)cc(-c2cc(C)c(CC(=O)Nc3c(Cl)c(C)nn3C)c(C)c2)c1 [Example 141]
48 | logP = 3.77 | CCc1nn(C)c(NC(=O)Cc2cc(-c3ccc(Cl)cc3)c(C)cc2C)c1C#N [Example 170]
49 | logP = 2.83 | CCc1nn(C)c(NC(=O)Cc2c(C)cc(C)cc2C)c1C#N [Example 136]
50 | logP = 3.88 | Cc1cc(C)cc(-c2cc(C)c(CC(=O)Nc3c(C#N)c(C)nn3C)c(C)c2)c1 [Example 152]
51 | logP = 3.25 | COc1ccccc1-c1cc(C)c(CC(=O)Nc2c(Cl)c(C)nn2C)c(C)c1 [Example 142]
52 | logP = 3.20 | CCc1nn(C)c(NC(=O)Cc2c(C)cc(-c3ccccc3OC)cc2C)c1C#N [Example 165]
53 | logP = 3.17 | Cc1ccc(Oc2ccccc2CC(=O)Nc2c(C#N)c(C)nn2C)c(C)c1 [Example 149]
54 | logP = 3.96 | CCc1nn(C)c(NC(=O)Cc2c(C)cc(-c3cc(C)cc(C)c3)cc2C)c1C#N [Example 164]
55 | logP = 1.84 | CCc1nn(C)c(NC(=O)Cc2ccc(OC(C)=O)cc2)c1C#N [Example 120]
56 | logP = 3.70 | Cc1cc(C)c(-c2ccc(Cl)cc2)c(C)c1CC(=O)Nc1c(C#N)c(C)nn1C [Example 159]
57 | logP = 3.49 | CCc1nn(C)c(NC(=O)Cc2cc(-c3ccc(Cl)cc3)ccc2C)c1C#N [Example 163]
58 | logP = 3.79 | Cc1cc(-c2cccc(Cl)c2)cc(C)c1CC(=O)Nc1c(Cl)c(C)nn1C [Example 143]
59 | logP = 1.71 | CCc1nn(C)c(NC(=O)Cc2cccc(C(C)=O)c2)c1C#N [Example 115]
60 | logP = 2.95 | COc1ccccc1-c1cc(C)c(CC(=O)Nc2c(C#N)c(C)nn2C)c(C)c1 [Example 153]
61 | logP = 2.36 | Cc1cc(C)c(CC(=O)Nc2c(C#N)c(C)nn2C)c(C)c1 [Example 137]
62 | logP = 3.51 | CCc1nn(C)c(NC(=O)Cc2cc(-c3ccccc3Cl)c(C)cc2C)c1C#N [Example 169]
63 | logP = 3.01 | CCc1nn(C)c(NC(=O)Cc2c(C)cc(C)cc2C)c1Cl [Example 102]
64 | logP = 3.46 | Cc1cc(-c2ccc(Cl)cc2)cc(C)c1CC(=O)Nc1c(C#N)c(C)nn1C [Example 154]
65 | logP = 3.70 | CCc1nn(C)c(NC(=O)Cc2c(C)cc(-c3cccc(Cl)c3)cc2C)c1C#N [Example 167]
66 | logP = 3.42 | Cc1cc(-c2cccc(Cl)c2)cc(C)c1CC(=O)Nc1c(C#N)c(C)nn1C [Example 155]
